Where two headings read alike, the source gives them in different places.
Legend:
[1] = Stability against deposition of precipitates (visual judgement of the stored processing composition); format: physicochemical; design: key: the level of conspicuous precipitation was xx; the level of apparent precipitation was x; the level of slight precipitation was Δ; the level of no precipitation but clouding was ◯; the level of complete transparency with neither clouding nor precipitation was ◯◯
[2] = Solubility at the preparation of the additive composition for a fixing solution; format: physicochemical; conditions: Example 5 additive composition, dissolution aid none
[3] = Example 1 concentrated color developing composition, 15 mmol added, glass bottle, 4 weeks at room temperature
[4] = Example 1 concentrated color developing composition, 15 mmol added, glass bottle, 4 weeks at −5° C.
[5] = Example 2 color developing composition with increased developing agent, 25 mmol added, 4 weeks at room temperature
[6] = Example 2 color developing composition with increased developing agent, 25 mmol added, 4 weeks at −5° C.
[7] = Example 3 fixing composition, 5 mmol added, 4 weeks at room temperature
[8] = Example 3 fixing composition, 5 mmol added, 4 weeks at −5° C.
[9] = Example 4 color developing composition for color negative film, 15 mmol added, 4 weeks at room temperature
[10] = Example 4 color developing composition for color negative film, 15 mmol added, 4 weeks at −5° C.
[11] = Example 5 additive composition, compound 70 mmol, dissolution aid none, −5° C.

| SMILES | Evaluation of Deposition (room temperature) [1, 3] | Evaluation of Deposition (−5° C.) [1, 4] | Evaluation of Deposition (room temperature) [1, 5] | Evaluation of Deposition (−5° C.) [1, 6] | Evaluation of Deposition (room temperature) [1, 7] | Evaluation of Deposition (−5° C.) [1, 8] | Evaluation of Deposition (room temperature) [1, 9] | Evaluation of Deposition (−5° C.) [1, 10] | Evaluation of Deposition (−5° C.) [1, 11] | Solubility at the Preparation of Solution ([2]; compound 70 mmol) | Evaluation of Deposition (−5° C.) ([1]; Example 5 additive composition, compound 140 mmol, dissolution aid none, −5° C.) | Solubility at the Preparation of Solution ([2]; compound 140 mmol) | Evaluation of Deposition (room temperature) [1] | Evaluation of Deposition (−5° C.) [1] |
| --- | --- | --- | --- | --- | --- | --- | --- | --- | --- | --- | --- | --- | --- | --- |
| O=S(=O)([O-])CCNc1nc(NCC(O)CO)nc(Nc2ccc(Nc3nc(NCCS(=O)(=O)[O-])nc(NCC(O)CO)n3)cc2)n1.[Na+].[Na+] (centres unmarked) [Compound A-2] | ◯◯ | ◯◯ | ◯◯ | ◯◯ | ◯◯ | ◯◯ | ◯◯ | ◯◯ | ◯◯ | Completely | – | – | – | – |
| O=S(=O)([O-])CCNc1nc(NCC(O)CO)nc(Nc2cccc(Nc3nc(NCCS(=O)(=O)[O-])nc(NCC(O)CO)n3)c2)n1.[Na+].[Na+] (centres unmarked) [Compound A-3] | ◯◯ | ◯◯ | ◯◯ | ◯◯ | ◯◯ | ◯◯ | ◯◯ | ◯◯ | ◯◯ | Completely | ◯◯ | Completely | – | – |
| COc1cc(Nc2nc(NCCS(=O)(=O)[O-])nc(NCC(O)CO)n2)c(OC)cc1Nc1nc(NCCS(=O)(=O)[O-])nc(NCC(O)CO)n1.[Na+].[Na+] (centres unmarked) [Compound A-7] | – | – | – | – | – | – | – | – | – | – | – | – | ◯◯ | ◯ |
| CC(CO)Nc1nc(NCC(O)CO)nc(Nc2cc(Nc3nc(NCC(O)CO)nc(NC(C)CO)n3)cc(S(=O)(=O)[O-])c2)n1.[Na+] (centres unmarked) [Compound A-23] | – | – | – | – | – | – | – | – | – | – | – | – | ◯◯ | ◯◯ and ◯ |

Source: patent US6753425B2, “Photographic processing composition containing bistriazinyl arylenediamine derivative” (Fuji Photo Film Co., Ltd., priority 2000, dated 2004)
